Key:
primary rat hepatocytes [1] = experiment: DCA-induced apoptosis, nuclear fragmentation by Hoechst staining; assay type: cell-based; details: for prevention of nuclear fragmentation: 50 μM DCA, 100 μM compound pretreatment, FIG. 7C
Protocol: Primary rat hepatocytes were isolated from male rats (100-150 grams) by collagenase perfusion (as described by Solá S, et al., 2003, Journal of Biological Chemistry 278: 48831-48838)). Briefly, rats were anesthetized with phenobarbital sodium (100 mg/kg body weight) injected into the peritoneal cavity. After administration of heparin (200 units/kg body weight) in the tail vein, the animal's abdomen was opened and the portal vein exposed and cannulated. The liver was then perfused at 37° C. in situ with a calcium-free Hanks' Balanced Salt Solution (HBSS) for about 10 minutes, and then with 0.05% collagenase type IV in calcium-present HBSS for another 10 minutes. Hepatocyte suspensions were obtained by passing collagenase-digested livers through 125 μm gauze and washing cells in Complete William's E medium (William's E medium, Sigma-Aldrich Corp., St Louis, Mo., USA) supplemented with 26 mM sodium bicarbonate, 23 mM HEPES, 0.01 units/mL insulin, 2 mM L-glutamine, 10 nM dexamethasone, 100 units/mL penicillin, and 10% heat-inactivated fetal bovine serum (Invitrogen Corp., Carlsbad, Calif., USA). Viable primary rat hepatocytes were enriched by low-speed centrifugation at 200 g for 3 minutes. Cell viability was determined by trypan blue exclusion and was typically 80-85%. After isolation, hepatocytes were resuspended in Complete William's E medium and plated on PrimariaTM tissue culture dishes (BD Biosciences, San Jose, Calif., USA) at 5×10^4 cells/cm^2. Cells were maintained at 37° C. in a humidified atmosphere of 5% CO2 for 6 hours to allow attachment. […] Fluorescence was visualized using an Axioskop fluorescence microscope (Carl Zeiss GmbH). Blue-fluorescent nuclei were scored blindly and categorized according to the condensation and staining characteristics of chromatin. […] Five random microscopic fields per sample containing approximately 150 nuclei were counted, and mean values expressed as the percentage of apoptotic nuclei. […] Results are expressed as means±SEM of at least three experiments. *p<0.01 from control; § p<0.05 and †p<0.01 from respective DCA.

primary rat hepatocytes [2] = experiment: TGF-β1-induced cytotoxicity, LDH release; assay type: cell-based; details: 1 nM TGF-β1 36 hours; 100 μM compound; FIG. 8A
Protocol: Primary rat hepatocytes were isolated from male rats (100-150 grams) by collagenase perfusion (as described by Solá S, et al., 2003, Journal of Biological Chemistry 278: 48831-48838)). Briefly, rats were anesthetized with phenobarbital sodium (100 mg/kg body weight) injected into the peritoneal cavity. After administration of heparin (200 units/kg body weight) in the tail vein, the animal's abdomen was opened and the portal vein exposed and cannulated. The liver was then perfused at 37° C. in situ with a calcium-free Hanks' Balanced Salt Solution (HBSS) for about 10 minutes, and then with 0.05% collagenase type IV in calcium-present HBSS for another 10 minutes. […] Cell viability was determined by trypan blue exclusion and was typically 80-85%. […]
The ApoTox-Glo™ Triplex Assay (Promega Corp., Madison, Wis., USA) was used to evaluate cell viability, cytotoxicity and caspase-3/7 activity, according to the manufacturer's protocol, using a GloMax+ Multi Detection System (Promega Corp.). General cell death was also evaluated using the lactate dehydrogenase (LDH) Cytotoxicity Detection Kit^PLUS (Roche Diagnostics GmbH, Mannheim, Germany), following the manufacturer's instructions. […]

Compound | prevention of nuclear fragmentation (primary rat hepatocytes [1]) [%] | more effective than UDCA at reducing the percentage of apoptotic cells (primary rat hepatocytes [1]; DCA, Compound 5 versus UDCA) [%] | more effective than UDCA at inhibiting TGF-β1-induced LDH release (primary rat hepatocytes [2])
C[C@H](CCC(=O)O)[C@H]1CC[C@H]2[C@@H]3[C@@H](O)C[C@@H]4C[C@H](O)CC[C@]4(C)[C@H]3CC[C@]12C [UDCA, Ursodeoxycholic acid, reference compound] | ~50 |  | 
7,8-[^2H]-3α,7α-dihydroxy-5β-cholan-24-oic acid/7-[^2H]-3α,7α-dihydroxy-5β-cholan-24-oic acid [Compound 5] | ~65 | ~15 | about 10%
